PMC6220849, “Mechanistic and structural studies of KDM‐catalysed demethylation of histone 1 isotype 4 at lysine 26” (Febs Letters, 2018)
Square brackets hold non-standard residues; d marks the D form. Ends that are not written are not given here. Me3 = N-epsilon-trimethyl on lysine; Lys(Me) = CNCCCC[C@H](N)C(=O)O

T1: KDM4A(1-359), catalytic domain of human histone lysine demethylase KDM4A (human, UniProt O75164 1-359)
T1 construct: KDM4A, human, catalytic domain, residues 1-359; In the crystal the active site holds Ni(II) (in place of Fe(II)) and N-oxalylglycine (NOG)
T1 sequence (looked up): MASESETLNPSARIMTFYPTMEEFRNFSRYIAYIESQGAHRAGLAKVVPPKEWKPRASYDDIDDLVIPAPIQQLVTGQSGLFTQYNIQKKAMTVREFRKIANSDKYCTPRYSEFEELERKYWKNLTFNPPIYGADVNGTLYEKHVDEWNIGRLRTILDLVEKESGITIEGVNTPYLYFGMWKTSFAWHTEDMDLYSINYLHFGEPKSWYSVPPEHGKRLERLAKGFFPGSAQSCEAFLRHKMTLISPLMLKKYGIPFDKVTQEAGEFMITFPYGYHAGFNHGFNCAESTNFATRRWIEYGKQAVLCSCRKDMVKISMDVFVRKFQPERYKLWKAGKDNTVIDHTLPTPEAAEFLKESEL

B1: H1.4(18–32)K26me3 peptide (histone 1 isotype 4, residues 18-32, N-epsilon-trimethyllysine at K26) (peptide)
peptide: TPVKKKARK(Me3)SAGAAK-NH2
notes: histone H1.4 (histone 1 isotype 4), residues 18-32; only residues 24-29 are seen in the crystal structure; also called H1.4K26me3; H1.4K26me3 peptide; source: synthetic peptide

Tests used:
KDM3A (KDM3A515–1317) = experiment: MALDI-TOF MS demethylation activity assay, KDM3A; format: biochemical, human; design: key: 🟢: Indicates that clear demethylation activity was observed; 🟡: Indicates that low level demethylation activity was observed (<10% conversion after 1 h); 🔴: Indicates no activity under the stated conditions (1 μM KDM, 10 μM peptide); 🟡*: *Indicates demethylation activity was only observed with 5 μM KDM; conditions: peptide as substrate, 1 μM KDM, 10 μM peptide, 50 mM HEPES pH 7.5, Fe(II) 10 μM, ascorbate 100 μM, 2OG 200 μM, 1 mM TCEP, 1 h at 37 °C
Description: (§1) Recombinant proteins (1 μM) were incubated with peptides (10 μM, sequences are given in Table S1) in 50 mM HEPES, pH 7.5 with addition of Fe(II) ammonium sulfate (10 μM), sodium ascorbate (100 μM) and 2‐oxoglutaric acid (200 μM). Reactions with KDM3A and KDM7A also contained 1 mM tris(2‐carboxyethyl)phosphine hydrochloride. No enzyme reactions were included as negative controls. Reactions were incubated for 1 h at 37 °C before being quenched with 1 : 1 (v/v) methanol. Analysis was carried out by MALDI‐TOF MS (Bruker, Billerica, MA, USA), with demethylation observed as mass shifts of 14 Da.
(§2) The propensity of human JmjC KDMs to catalyse demethylation at H1.4K26 was investigated using recombinant forms of the catalytic domains of representatives of each human JmjC KDM subfamily (KDM2‐7) and fragment peptides (Table S1) 37. Three peptides with identical sequences, corresponding to residues 18–32 of histone H1.4 (H2N‐[…]‐CONH2), but containing either a N ^ε‐tri‐, di‐ or monomethyllysine at K26 were synthesised (Fig. 1B and Table S1). Activity assays monitoring JmjC KDM‐catalysed demethylation of the peptides were then carried out; samples were prepared containing each peptide, 2‐oxoglutarate (2OG), ferrous iron, ascorbate and individual representatives from each JmjC KDM subfamily (KDM2A 38, KDM3A 21, KDM4E 22, KDM5C 39, 40, KDM6B 41, KDM7A 42).

KDM7A (KDM7A38–480) = experiment: MALDI-TOF MS demethylation activity assay, KDM7A; format: biochemical, human; conditions: peptide as substrate; MALDI-TOF MS; 1 μM KDM, 10 μM peptide, 50 mM HEPES pH 7.5, Fe(II) 10 μM, ascorbate 100 μM, 2OG 200 μM, 1 mM TCEP, 1 h at 37 °C
Description: as §1, §2
(§3) N ^ε‐Trimethylated H3K4 binds to the plant homeobox domain of KDM7B, targeting the N ^ε‐dimethyllysine at H3K9 to the catalytic domain, and thus promoting demethylation 29, 44. To test whether similar targeting may occur with H1.4, promoting activity at H1.4K26, an H1.4 peptide was synthesised containing di‐N ^ε‐methyllysine at K26 and tri‐N ^ε‐methyllysine at K21 (i.e. at the equivalent position in the sequence to K4 in the H3 peptide, Fig. 1B, Table S1). Monomethylation at H1.4K21 has previously been observed by proteomic mass spectrometry 45. With the aim of enhancing activity, the enzyme concentration was increased from 1 μM to 5 μM, and time course analyses were conducted with both KDM7A and KDM7B, both with the new peptide (H1.4(18–32)K21me3K26me2) and the H1.4 peptides methylated only at K26 (Fig. 2B). […] Thus, it appears unlikely that N ^ε‐trimethylation at H1.4K21 promotes demethylation at H1.4K26 by KDM7B.

KDM6B (KDM6B1141–1590) = experiment: MALDI-TOF MS demethylation activity assay, KDM6B; format: biochemical, human; design: key: 🟢: Indicates that clear demethylation activity was observed; 🟡: Indicates that low level demethylation activity was observed (<10% conversion after 1 h); 🔴: Indicates no activity under the stated conditions (1 μM KDM, 10 μM peptide); 🟡*: *Indicates demethylation activity was only observed with 5 μM KDM; conditions: peptide as substrate, 1 μM KDM, 10 μM peptide, 50 mM HEPES pH 7.5, Fe(II) 10 μM, ascorbate 100 μM, 2OG 200 μM, 1 h at 37 °C
Description: as §1, §2

KDM2A (KDM2A1–557) = experiment: MALDI-TOF MS demethylation activity assay, KDM2A; format: biochemical, human; design: key: 🟢: Indicates that clear demethylation activity was observed; 🟡: Indicates that low level demethylation activity was observed (<10% conversion after 1 h); 🔴: Indicates no activity under the stated conditions (1 μM KDM, 10 μM peptide); 🟡*: *Indicates demethylation activity was only observed with 5 μM KDM; conditions: peptide as substrate, 1 μM KDM, 10 μM peptide, 50 mM HEPES pH 7.5, Fe(II) 10 μM, ascorbate 100 μM, 2OG 200 μM, 1 h at 37 °C
Description: as §1, §2

KDM4D (KDM4D1–359) = experiment: MALDI-TOF MS demethylation activity assay, KDM4D; format: biochemical, human; design: key: 🟢: Indicates that clear demethylation activity was observed; 🟡: Indicates that low level demethylation activity was observed (<10% conversion after 1 h); 🔴: Indicates no activity under the stated conditions (1 μM KDM, 10 μM peptide); 🟡*: *Indicates demethylation activity was only observed with 5 μM KDM; conditions: peptide as substrate, 1 μM KDM, 10 μM peptide, 50 mM HEPES pH 7.5, Fe(II) 10 μM, ascorbate 100 μM, 2OG 200 μM, 1 h at 37 °C
Description: as §1
(§4) Given the activity observed with KDM4E and KDM7A, we decided to investigate the intra‐subfamily conservation of this demethylation activity. The demethylation activity of the other subfamily members (KDM4A‐D and KDM7B) was therefore screened. […] Note that as with H3K9, demethylation of the monomethylated H1.4K26 peptide was only observed with KDM4E, under the stated conditions 24.

KDM4B (KDM4B1–359) = experiment: MALDI-TOF MS demethylation activity assay, KDM4B; format: biochemical, human; design: key: 🟢: Indicates that clear demethylation activity was observed; 🟡: Indicates that low level demethylation activity was observed (<10% conversion after 1 h); 🔴: Indicates no activity under the stated conditions (1 μM KDM, 10 μM peptide); 🟡*: *Indicates demethylation activity was only observed with 5 μM KDM; conditions: peptide as substrate, 1 μM KDM, 10 μM peptide, 50 mM HEPES pH 7.5, Fe(II) 10 μM, ascorbate 100 μM, 2OG 200 μM, 1 h at 37 °C
Description: as §1, §4

KDM7B (PHF8; KDM7B1–447) = experiment: MALDI-TOF MS demethylation activity assay, KDM7B (PHF8); format: biochemical, human; design: key to demethylation activity on methylated H1.4 peptide: 🟢: Indicates that clear demethylation activity was observed; 🟡: Indicates that low level demethylation activity was observed (<10% conversion after 1 h); 🔴: Indicates no activity under the stated conditions (1 μM KDM, 10 μM peptide); 🟡*: *Indicates demethylation activity was only observed with 5 μM KDM; conditions: peptide as substrate; MALDI-TOF MS; 1 μM KDM (* = only with 5 μM KDM), 10 μM peptide, 50 mM HEPES pH 7.5, Fe(II) 10 μM, ascorbate 100 μM, 2OG 200 μM, 1 h at 37 °C
Description: as §1, §4, §3

KDM4A (KDM4A1–359) = experiment: MALDI-TOF MS demethylation activity assay, KDM4A; format: biochemical, human; design: key: 🟢: Indicates that clear demethylation activity was observed; 🟡: Indicates that low level demethylation activity was observed (<10% conversion after 1 h); 🔴: Indicates no activity under the stated conditions (1 μM KDM, 10 μM peptide); 🟡*: *Indicates demethylation activity was only observed with 5 μM KDM; conditions: peptide as substrate, 1 μM KDM, 10 μM peptide, 50 mM HEPES pH 7.5, Fe(II) 10 μM, ascorbate 100 μM, 2OG 200 μM, 1 h at 37 °C
Description: as §1, §4

KDM5C (KDM5C1–765) = experiment: MALDI-TOF MS demethylation activity assay, KDM5C; format: biochemical, human; design: key: 🟢: Indicates that clear demethylation activity was observed; 🟡: Indicates that low level demethylation activity was observed (<10% conversion after 1 h); 🔴: Indicates no activity under the stated conditions (1 μM KDM, 10 μM peptide); 🟡*: *Indicates demethylation activity was only observed with 5 μM KDM; conditions: peptide as substrate, 1 μM KDM, 10 μM peptide, 50 mM HEPES pH 7.5, Fe(II) 10 μM, ascorbate 100 μM, 2OG 200 μM, 1 h at 37 °C
Description: as §1, §2

KDM4C (KDM4C1–359) = experiment: MALDI-TOF MS demethylation activity assay, KDM4C; format: biochemical, human; design: key: 🟢: Indicates that clear demethylation activity was observed; 🟡: Indicates that low level demethylation activity was observed (<10% conversion after 1 h); 🔴: Indicates no activity under the stated conditions (1 μM KDM, 10 μM peptide); 🟡*: *Indicates demethylation activity was only observed with 5 μM KDM; conditions: peptide as substrate, 1 μM KDM, 10 μM peptide, 50 mM HEPES pH 7.5, Fe(II) 10 μM, ascorbate 100 μM, 2OG 200 μM, 1 h at 37 °C
Description: as §1, §4

[1] = target: T1, KDM4A(1-359), catalytic domain of human …; experiment: crystal structure; co-crystals of KDM4A(1-359).Ni(II).H1.4(18-32)K26me3.NOG; sitting drops at 4 °C, 0.1 M MIB buffer pH 6.0, 25% w/v PEG 1500; 10 mg/mL KDM4A, 5 mM peptide, 5 mM NOG, 4 mM NiCl2; conditions: both partners purified

Row | binding result [1] | Molecule | demethylation activity on methylated H1.4 peptide (KDM3A (KDM3A515–1317)) | demethylation activity on methylated H1.4 peptide (KDM7A (KDM7A38–480)) | demethylation activity on methylated H1.4 peptide (KDM6B (KDM6B1141–1590)) | demethylation activity on methylated H1.4 peptide (KDM2A (KDM2A1–557)) | demethylation activity on methylated H1.4 peptide (KDM4D (KDM4D1–359)) | demethylation activity on methylated H1.4 peptide (KDM4B (KDM4B1–359)) | demethylation activity on methylated H1.4 peptide (KDM7B (PHF8; KDM7B1–447)) | demethylation activity on methylated H1.4 peptide (KDM4A (KDM4A1–359)) | demethylation activity on methylated H1.4 peptide (KDM5C (KDM5C1–765)) | demethylation activity on methylated H1.4 peptide (KDM4C (KDM4C1–359))
1 |  | TPVKKKAR[Lys(Me)]SAGAAK [H1.4(18–32)K26me1, peptide of residues 18–32 of histone H1.4 with N ε-monomethyllysine at K26] | 🔴 | 🟡 (Indicates that low level demethylation activity was observed (<10% conversion after 1 h)) | 🔴 | 🔴 | 🔴 | 🔴 | 🟡* | 🔴 | 🔴 | 🔴
2 | binds | B1 |  |  |  |  |  |  |  |  |  | 
